# From patent publication US20200029601A1, “PHENYLACRYLIC ACID SOLUTION FOR BROAD SPECTRUM ANTIMICROBIAL APPLICATIONS FOR FOODSTUFFS” (KLF LABS LLC, priority 2018, published 2020)
# Like-named read-outs stand apart in the source and are kept apart here.
# Columns and labels:
# Saccharomyces cerevisiae [1] = test: Yeast growth in sterile model beverage (Experimental Test 5); type: cell-based; details: 300 ppm; model beverage at 4° C.; 72 hours
# Procedure: Application experiments were set up using a model beverage. The formulations were tested against Saccharomyces cerevisiae, a yeast well recognized for its beverage spoiling quality. A sterile model beverage was prepared using the formulation indicated in Table 19, with an initial inoculation quantity of 10^4 cells/mL of beverage. […] The OD 660 of each sample was measured 72 hours after initial inoculation using an 8543 Spectrophotometer and the data was compiled using excel, as depicted in Table 20.
# Candida parapsilosis = test: microbe, parasite or virus in culture; details: Lodderomyces parapsilosis, 48 h
# Procedure: (§1) The media was then sterilized by steam autoclaving the solution for 15 minutes at 121° C. and the media was placed into 3 96 cell plates and pH using either 0.1N HCl or 0.1N NaOH to pH values of 3.1, 5.6, 6.0, 6.5, 7.0, and 7.5.
# (§2) Three exemplary embodiment solutions were added and serial diluted into a series of treatment wells and 0.5 McFarland Standard's worth of yeast cells were added to each well. The plates were incubated at 32° C. for 48 hours and then the OD was read at 600 nm. The percent inhibition was graphed as a percentage of the following formula indicated in Equation 1.
# Saccharomyces cerevisiae [2] = test: microbe, parasite or virus in culture; details: 48 h
# Procedure: as §1, §2
# Zygosaccharomyces bailii = test: microbe, parasite or virus in culture; details: 48 h
# Procedure: as §1, §2
# Zygosaccharomyces rouxii = test: microbe, parasite or virus in culture; details: 48 h
# Procedure: as §1, §2
# Escherichia coli = details: 500 ppm; pH 4.5; 24 hours growth, then plated
# Procedure: (§3) In conducting tests with the model organisms, agar medium for 1 L plates were first prepared having the composition indicated in Table 16.
# (§4) In connection with this particular experiment, the pH of the samples was adjusted to a pH value of 4.5 by adding a small amount of 0.1 M HCl. The samples were then sterilized with steam at 121° C. for about 15 minutes. The formulations were allowed to cool to 70° F., after which a sample of 10^6 cells of an aforementioned microorganism, as measured using the optical density of the cells, was applied to 1 mL of the individual solutions. Afterwards, samples were allowed to grow for 24 hours. The solutions were diluted one hundred-fold and 10 microliters were applied to a LB media plate and outgrown for 24 additional hours.
# [3] = test system: Lactobacillus acidophilus; details: 500 ppm; pH 4.5; 24 hours growth, then plated
# Procedure: as §3, §4
# Saccharomyces cerevisiae [4] = details: 1000 ppm (positive control); pH 4.0; 72 hours
# Procedure: Each of the formulations presented above was added to each of the three 20 mL samples of the agar medium.
# In connection with this particular experiment, the pH of the samples was adjusted to a pH value of 4.0 by adding a small amount of 0.1 M HCl. The samples were then sterilized with steam at 121° C. for 15 minutes. In one embodiment, 1 mL sample formulations were poured into a 1.5 mL sterile microcentrifuge tube and inoculated with ˜10,000 Saccharomyces cerevisiae cells (e.g., yeast cells). The cells were allowed to grow outwards for 72 hours and then the endpoint concentration of cell growth was determined spectrophotometrically at 660 nm. In samples where cell growth was generally absent cell samples were diluted and counted on a yeast extract peptone dextrose plate. Controls to account for the presence of binder in the absorbance reading were subtracted out in the reporting of the final absorbance. The negative control was diluted twenty times prior to reading the Abs 660 nm.
# [5] = pH 3.1, read-out: Percent inhibition
# [6] = pH 5.6, read-out: Percent inhibition
# [7] = pH 6, read-out: Percent inhibition
# [8] = pH 6.5, read-out: Percent inhibition
# [9] = pH 7, read-out: Percent inhibition
# [10] = pH 7.5, read-out: Percent inhibition
smiles,measurement,setting,value
"O=C(O)C=Cc1ccccc1 [Phenylacrylic Acid, 3-phenyl-2-propenoic acid]",OD 660 nm,Saccharomyces cerevisiae [1],0.51
C/C=C/C=C/C(=O)[O-].[K+] [Potassium Sorbate],inhibition at 130 ppm,Candida parapsilosis; [5],0.9%
same,inhibition at 250 ppm,Candida parapsilosis; [5],5.2%
same,inhibition at 500 ppm,Candida parapsilosis; [5],16.2%
same,inhibition at 1000 ppm,Candida parapsilosis; [5],13.5%
same,inhibition at 2000 ppm,Candida parapsilosis; [5],6.5%
same,inhibition at 130 ppm,Candida parapsilosis; [6],9.5%
same,inhibition at 250 ppm,Candida parapsilosis; [6],12.3%
same,inhibition at 500 ppm,Candida parapsilosis; [6],28.7%
same,inhibition at 1000 ppm,Candida parapsilosis; [6],32.8%
same,inhibition at 2000 ppm,Candida parapsilosis; [6],42.4%
same,inhibition at 130 ppm,Candida parapsilosis; [7],5%
same,inhibition at 250 ppm,Candida parapsilosis; [7],12.8%
same,inhibition at 500 ppm,Candida parapsilosis; [7],7.6%
same,inhibition at 1000 ppm,Candida parapsilosis; [7],4.6%
same,inhibition at 2000 ppm,Candida parapsilosis; [7],2.8%
same,inhibition at 130 ppm,Candida parapsilosis; [8],3.3%
same,inhibition at 250 ppm,Candida parapsilosis; [8],1.1%
same,inhibition at 500 ppm,Candida parapsilosis; [8],0%
same,inhibition at 1000 ppm,Candida parapsilosis; [8],0%
same,inhibition at 2000 ppm,Candida parapsilosis; [8],0.8%
same,inhibition at 130 ppm,Candida parapsilosis; [9],1.7%
same,inhibition at 250 ppm,Candida parapsilosis; [9],8.8%
same,inhibition at 500 ppm,Candida parapsilosis; [9],15.9%
same,inhibition at 1000 ppm,Candida parapsilosis; [9],8.3%
same,inhibition at 2000 ppm,Candida parapsilosis; [9],8.4%
same,inhibition at 130 ppm,Candida parapsilosis; [10],6.2%
same,inhibition at 250 ppm,Candida parapsilosis; [10],0%
same,inhibition at 500 ppm,Candida parapsilosis; [10],0%
same,inhibition at 1000 ppm,Candida parapsilosis; [10],0%
same,inhibition at 2000 ppm,Candida parapsilosis; [10],7.4%
same,inhibition at 130 ppm,Saccharomyces cerevisiae [2]; [5],99.6%
same,inhibition at 250 ppm,Saccharomyces cerevisiae [2]; [5],99.4%
same,inhibition at 500 ppm,Saccharomyces cerevisiae [2]; [5],99.7%
same,inhibition at 1000 ppm,Saccharomyces cerevisiae [2]; [5],99.8%
same,inhibition at 2000 ppm,Saccharomyces cerevisiae [2]; [5],99.3%
same,inhibition at 130 ppm,Saccharomyces cerevisiae [2]; [6],84.9%
same,inhibition at 250 ppm,Saccharomyces cerevisiae [2]; [6],95.3%
same,inhibition at 500 ppm,Saccharomyces cerevisiae [2]; [6],98.1%
same,inhibition at 1000 ppm,Saccharomyces cerevisiae [2]; [6],99%
same,inhibition at 2000 ppm,Saccharomyces cerevisiae [2]; [6],99.4%
same,inhibition at 130 ppm,Saccharomyces cerevisiae [2]; [7],9.9%
same,inhibition at 250 ppm,Saccharomyces cerevisiae [2]; [7],25%
same,inhibition at 500 ppm,Saccharomyces cerevisiae [2]; [7],50.3%
same,inhibition at 1000 ppm,Saccharomyces cerevisiae [2]; [7],62%
same,inhibition at 2000 ppm,Saccharomyces cerevisiae [2]; [7],76.2%
same,inhibition at 130 ppm,Saccharomyces cerevisiae [2]; [8],17.7%
same,inhibition at 250 ppm,Saccharomyces cerevisiae [2]; [8],28.2%
same,inhibition at 500 ppm,Saccharomyces cerevisiae [2]; [8],48.1%
same,inhibition at 1000 ppm,Saccharomyces cerevisiae [2]; [8],60.6%
same,inhibition at 2000 ppm,Saccharomyces cerevisiae [2]; [8],84.6%
same,inhibition at 130 ppm,Saccharomyces cerevisiae [2]; [9],22%
same,inhibition at 250 ppm,Saccharomyces cerevisiae [2]; [9],37.9%
same,inhibition at 500 ppm,Saccharomyces cerevisiae [2]; [9],53.2%
same,inhibition at 1000 ppm,Saccharomyces cerevisiae [2]; [9],69%
same,inhibition at 2000 ppm,Saccharomyces cerevisiae [2]; [9],84.9%
same,inhibition at 130 ppm,Saccharomyces cerevisiae [2]; [10],19.4%
same,inhibition at 250 ppm,Saccharomyces cerevisiae [2]; [10],44.9%
same,inhibition at 500 ppm,Saccharomyces cerevisiae [2]; [10],55.8%
same,inhibition at 1000 ppm,Saccharomyces cerevisiae [2]; [10],73.6%
same,inhibition at 2000 ppm,Saccharomyces cerevisiae [2]; [10],72.1%
same,inhibition at 130 ppm,Zygosaccharomyces bailii; [5],91.9%
same,inhibition at 250 ppm,Zygosaccharomyces bailii; [5],96.5%
same,inhibition at 500 ppm,Zygosaccharomyces bailii; [5],99.1%
same,inhibition at 1000 ppm,Zygosaccharomyces bailii; [5],99.7%
same,inhibition at 2000 ppm,Zygosaccharomyces bailii; [5],100%
same,inhibition at 130 ppm,Zygosaccharomyces bailii; [6],70.4%
same,inhibition at 250 ppm,Zygosaccharomyces bailii; [6],86.7%
same,inhibition at 500 ppm,Zygosaccharomyces bailii; [6],95.6%
same,inhibition at 1000 ppm,Zygosaccharomyces bailii; [6],99.7%
same,inhibition at 2000 ppm,Zygosaccharomyces bailii; [6],99.8%
same,inhibition at 130 ppm,Zygosaccharomyces bailii; [7],0%
same,inhibition at 250 ppm,Zygosaccharomyces bailii; [7],0%
same,inhibition at 500 ppm,Zygosaccharomyces bailii; [7],0%
same,inhibition at 1000 ppm,Zygosaccharomyces bailii; [7],1.8%
same,inhibition at 2000 ppm,Zygosaccharomyces bailii; [7],3%
same,inhibition at 130 ppm,Zygosaccharomyces bailii; [8],0%
same,inhibition at 250 ppm,Zygosaccharomyces bailii; [8],0%
same,inhibition at 500 ppm,Zygosaccharomyces bailii; [8],0%
same,inhibition at 1000 ppm,Zygosaccharomyces bailii; [8],0%
same,inhibition at 2000 ppm,Zygosaccharomyces bailii; [8],20%
same,inhibition at 130 ppm,Zygosaccharomyces bailii; [9],0%
same,inhibition at 250 ppm,Zygosaccharomyces bailii; [9],0%
same,inhibition at 500 ppm,Zygosaccharomyces bailii; [9],0%
same,inhibition at 1000 ppm,Zygosaccharomyces bailii; [9],0%
same,inhibition at 2000 ppm,Zygosaccharomyces bailii; [9],16%
same,inhibition at 130 ppm,Zygosaccharomyces bailii; [10],9.7%
same,inhibition at 250 ppm,Zygosaccharomyces bailii; [10],0%
same,inhibition at 500 ppm,Zygosaccharomyces bailii; [10],0%
same,inhibition at 1000 ppm,Zygosaccharomyces bailii; [10],0%
same,inhibition at 2000 ppm,Zygosaccharomyces bailii; [10],0.3%
same,inhibition at 130 ppm,Zygosaccharomyces rouxii; [5],39.3%
same,inhibition at 250 ppm,Zygosaccharomyces rouxii; [5],66.7%
same,inhibition at 500 ppm,Zygosaccharomyces rouxii; [5],80.4%
same,inhibition at 1000 ppm,Zygosaccharomyces rouxii; [5],88.6%
same,inhibition at 2000 ppm,Zygosaccharomyces rouxii; [5],84.2%
same,inhibition at 130 ppm,Zygosaccharomyces rouxii; [6],93.7%
same,inhibition at 250 ppm,Zygosaccharomyces rouxii; [6],95.9%
same,inhibition at 500 ppm,Zygosaccharomyces rouxii; [6],37.7%
same,inhibition at 1000 ppm,Zygosaccharomyces rouxii; [6],99.3%
same,inhibition at 2000 ppm,Zygosaccharomyces rouxii; [6],100%
same,inhibition at 130 ppm,Zygosaccharomyces rouxii; [7],0%
same,inhibition at 250 ppm,Zygosaccharomyces rouxii; [7],0%
same,inhibition at 500 ppm,Zygosaccharomyces rouxii; [7],3.4%
same,inhibition at 1000 ppm,Zygosaccharomyces rouxii; [7],17.4%
same,inhibition at 2000 ppm,Zygosaccharomyces rouxii; [7],63.3%
same,inhibition at 130 ppm,Zygosaccharomyces rouxii; [8],19.7%
same,inhibition at 250 ppm,Zygosaccharomyces rouxii; [8],0%
same,inhibition at 500 ppm,Zygosaccharomyces rouxii; [8],6.7%
same,inhibition at 1000 ppm,Zygosaccharomyces rouxii; [8],65.6%
same,inhibition at 2000 ppm,Zygosaccharomyces rouxii; [8],90.6%
same,inhibition at 130 ppm,Zygosaccharomyces rouxii; [9],4.7%
same,inhibition at 250 ppm,Zygosaccharomyces rouxii; [9],9.2%
same,inhibition at 500 ppm,Zygosaccharomyces rouxii; [9],62.7%
same,inhibition at 1000 ppm,Zygosaccharomyces rouxii; [9],86.2%
same,inhibition at 2000 ppm,Zygosaccharomyces rouxii; [9],89.3%
same,inhibition at 130 ppm,Zygosaccharomyces rouxii; [10],7.2%
same,inhibition at 250 ppm,Zygosaccharomyces rouxii; [10],16.5%
same,inhibition at 500 ppm,Zygosaccharomyces rouxii; [10],48.6%
same,inhibition at 1000 ppm,Zygosaccharomyces rouxii; [10],74.9%
same,inhibition at 2000 ppm,Zygosaccharomyces rouxii; [10],95.2%
same,Escherichia coli cell count,Escherichia coli,5.49 Log(CFU/mL)
same,Lactobacillus acidophilus cell count,[3],<2 Log(CFU/mL)
same,Abs 660 nm after 3 days,Saccharomyces cerevisiae [4],0.0396 ± 0.005
same,Cell Count after 3 days,Saccharomyces cerevisiae [4],5.3 × 10^5 CFU/mL
